Measured values taken from patent US10226509B2, “Lymphangiogenesis inhibitors for cancer and for graft survival” (TUFTS UNIVERSITY, priority 2014, dated 2019).

Assays:
PDPN = molecular target: T1, PDPN (Homo sapiens, UniProt Q86YL7); assay: Affinity precipitation assay, PDPN; format: binding; conditions: galectin-conjugated agarose beads, LEC lysates
T1 construct: Within the whole cell lysate, an anti-PDPN-reactive 43-kDa component was detected; host or cells: primary lymphatic endothelial cells (LECs)
T1 sequence (Q86YL7 23-162): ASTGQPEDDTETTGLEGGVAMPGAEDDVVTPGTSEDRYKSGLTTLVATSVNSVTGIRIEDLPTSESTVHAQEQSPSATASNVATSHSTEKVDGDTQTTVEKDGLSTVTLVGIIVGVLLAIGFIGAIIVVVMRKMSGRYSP
Method: (§1) Five mg of plant lectins (Vector Labs) and galectins were conjugated to 330 mg of Pierce® NHS-activated agarose dry resin in accordance with the manufacturer's instructions (Thermo Scientific). Primary LECs (Lonza) were lysed in Triton lysis buffer (20 mM Tris-HCl, pH 7.4; 150 mM NaCl; 0.5% Triton X-100 with protease inhibitor cocktail). LEC lysates (250 μg in 500 μL lysis buffer supplemented with 10 mM MgCl2) were incubated with 40 μL (50% slurry) of agarose-conjugated lectins (4° C., overnight). Beads were pelleted by centrifugation at 3000 rpm for 1 min. Non-specific binding proteins were removed by washing the beads with Triton lysis buffer once and PBS twice. Supernatants were discarded; bound proteins were eluted by boiling the beads with 20 μL of 2× Laemmli sample buffer for 7 min, and examined by western blotting.
To determine whether PDPN binds to Gal-8 in a carbohydrate-dependent manner, LEC lysates were incubated with Gal-8-conjugated to agarose beads in the presence or absence of 0.1 M of lactose (an inhibiting sugar) or sucrose (a non-inhibiting sugar). Bound proteins were examined with total cell lysates (input) by western blot using an anti-PDPN antibody. To determine specificity of PDPN binding to Gal-8, LEC lysates were also incubated with agarose beads conjugated to Gal-1, Gal-3 and Gal-7. Within the whole cell lysate, an anti-PDPN-reactive 43-kDa component was detected (FIG. 7A).

VEGFR-3 = assay: Affinity precipitation assay, VEGFR-3; format: binding, human; conditions: galectin-conjugated agarose beads, LEC lysates
Method: as §1
Next, a series of examples were performed to determine whether VEGF-C-induced lymphangiogenesis is dependent on Gal-8. To determine whether VEGFR-3 is a Gal-8-binding protein, LEC lysates were incubated with Gal-8-conjugated agarose beads in the presence or absence of 0.1 M of lactose (an inhibiting sugar) or sucrose (a non-inhibiting sugar). Bound proteins were examined and were compared to total cell lysates (input) by western blot using anti-VEGFR-3 antibody. Three forms of VEGFR-3 (125 kDa, 175 kDa and 195 kDa) were detected in total cell lysates (FIG. 5A) (Bando, H., et al. 2004. Int J Cancer 111:184-191.). […] Having shown that Gal-8 binds to VEGFR-3 in LECs and that the carbohydrate-binding activity of Gal-8 is required for the synergistic effect of Gal-8 on VEGF-C-induced LEC sprouting, it was of interest to determine whether VEGFR-3 bears 3′-sialylated glycans.

AKT = assay: Western blot of AKT activation in primary LECs; format: cell-based, human; conditions: 0.5 μM for 0 to 60 minutes or 0 to 0.5 μM for 30 minutes
Method: Primary LECs were lysed with Triton lysis buffer supplemented with protease inhibitor cocktail and Phos-STOP phosphatase inhibitor cocktail (Roche), and subjected to electrophoresis in 4-15% SDS-PAGE gels (Bio-Rad). Protein blots of the gels were blocked with 0.5×Odyssey® blocking buffer (OBB, Li-COR). For AKT and ERK signaling, blots were incubated with primary antibodies (rabbit anti-ERK1/2, 1:7500, Cell Signaling Technology; mouse anti-phospho-ERK1/2, Thr202/Tyr204, 1:2000, Cell Signaling Technology; mouse anti-AKT1/2/3, 1:2000, Cell Signaling Technology; rabbit anti-phospho-AKT, Ser473, 1:1500, Cell Signaling Technology) overnight at 4° C. Blots were washed with 0.5% Tween-20/PBS three times, and were incubated with appropriate secondary antibodies (donkey anti-rabbit IRDye 680LT and anti-mouse IRDye 800CW, Li-Cor) for 45 min at 25° C. The blots were scanned by an Odyssey® Infrared Imaging System using Image Studio v2.0 software (Li-COR). […] Signals were detected by Odyssey® Infrared Imaging System. […]

“Gal-8: recombinant galectin-8, tandem-repeat type galectin with two different CRDs” was tested, and the “binding of PDPN (in words)” value (PDPN) was “binds”, the “binding to VEGFR-3 (in words)” value (VEGFR-3) was “interacted with 125 and 195 kDa VEGFR-3 and not with 175 kDa VEGFR-3” and the “phosphorylation of AKT (in words)” value (AKT) was “induced phosphorylation of AKT and ERK1/2 in time- and dose-dependent manner”.
